# Assay results reported in PubChem BioAssay (NCI).
#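 Cultured in 96-well plates, cells were exposed to test compound for 48 hours across five concentrations. The concentration for 50% growth inhibition is given as GI50. TGI marks complete inhibition of growth.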
# What was measured:
# Assay in all cases: DTP human tumour cell line panel, 48 h
# DU-145 prostate = test system: DU-145 prostate
# K-562 leukemia = test system: K-562 leukemia
# OVCAR-5 ovarian = test system: OVCAR-5 ovarian
# KM12 colon = test system: KM12 colon
# MOLT-4 leukemia = test system: MOLT-4 leukemia
# U251 CNS = test system: U251 CNS
# MDA-MB-435 = test system: MDA-MB-435
# SF-268 CNS = test system: SF-268 CNS
# HOP-62 NSCLC = test system: HOP-62 NSCLC
# SF-539 CNS = test system: SF-539 CNS
# SNB-19 CNS = test system: SNB-19 CNS
# HCC-2998 colon = test system: HCC-2998 colon
# T-47D breast = test system: T-47D breast
# HS 578T breast = test system: HS 578T breast
# RPMI-8226 leukemia = test system: RPMI-8226 leukemia
# OVCAR-3 ovarian = test system: OVCAR-3 ovarian
# HOP-92 NSCLC = test system: HOP-92 NSCLC
# CCRF-CEM leukemia = test system: CCRF-CEM leukemia
# SN12C renal = test system: SN12C renal
# UO-31 renal = test system: UO-31 renal
# SF-295 CNS = test system: SF-295 CNS
# CAKI-1 renal = test system: CAKI-1 renal
# HL-60(TB) leukemia = test system: HL-60(TB) leukemia
# MDA-MB-231 breast = test system: MDA-MB-231 breast
# TK-10 renal = test system: TK-10 renal
# NCI/ADR-RES ovarian = test system: NCI/ADR-RES ovarian
# OVCAR-4 ovarian = test system: OVCAR-4 ovarian
# PC-3 prostate = test system: PC-3 prostate
# A498 renal = test system: A498 renal
# NCI-H460 lung = test system: NCI-H460 lung
# SW-620 colon = test system: SW-620 colon
# SNB-75 CNS = test system: SNB-75 CNS
# SK-MEL-2 melanoma = test system: SK-MEL-2 melanoma
# EKVX NSCLC = test system: EKVX NSCLC
# LOX IMVI melanoma = test system: LOX IMVI melanoma
# NCI-H226 lung = test system: NCI-H226 lung
# ACHN renal = test system: ACHN renal
# IGROV1 ovarian = test system: IGROV1 ovarian
# BT-549 breast = test system: BT-549 breast
# SK-MEL-5 melanoma = test system: SK-MEL-5 melanoma
# RXF 393 renal = test system: RXF 393 renal
# MCF7 breast = test system: MCF7 breast
# SK-OV-3 ovarian = test system: SK-OV-3 ovarian
# SR leukemia = test system: SR leukemia
# OVCAR-8 ovarian = test system: OVCAR-8 ovarian
# COLO 205 colon = test system: COLO 205 colon
# MDA-MB-468 breast = test system: MDA-MB-468 breast
# SK-MEL-28 melanoma = test system: SK-MEL-28 melanoma
# HCT-15 colon = test system: HCT-15 colon
# MALME-3M melanoma = test system: MALME-3M melanoma
# UACC-257 melanoma = test system: UACC-257 melanoma
# UACC-62 melanoma = test system: UACC-62 melanoma
# M14 melanoma = test system: M14 melanoma
# 786-0 renal = test system: 786-0 renal
smiles,measurement,setting,value
COc1ccc2[nH]c(O)c(N=NC(=O)COc3ccc(NC(=O)Nc4ccc(Cl)c(Cl)c4)cc3)c2c1,GI50,DU-145 prostate,493 nM
same,TGI,DU-145 prostate,1910 nM
same,GI50,K-562 leukemia,575 nM
same,TGI,K-562 leukemia,19700 nM
same,GI50,OVCAR-5 ovarian,1530 nM
same,TGI,OVCAR-5 ovarian,6000 nM
same,GI50,KM12 colon,1290 nM
same,TGI,KM12 colon,7640 nM
same,GI50,MOLT-4 leukemia,1610 nM
same,TGI,MOLT-4 leukemia,17900 nM
same,GI50,U251 CNS,3370 nM
same,TGI,U251 CNS,14900 nM
same,GI50,MDA-MB-435,605 nM
same,TGI,MDA-MB-435,2360 nM
same,GI50,SF-268 CNS,1640 nM
same,TGI,SF-268 CNS,10200 nM
same,GI50,HOP-62 NSCLC,2880 nM
same,TGI,HOP-62 NSCLC,14100 nM
same,GI50,SF-539 CNS,767 nM
same,TGI,SF-539 CNS,2090 nM
same,GI50,SNB-19 CNS,3330 nM
same,TGI,SNB-19 CNS,14200 nM
same,GI50,HCC-2998 colon,2970 nM
same,TGI,HCC-2998 colon,15600 nM
same,GI50,T-47D breast,1460 nM
same,TGI,T-47D breast,3260 nM
same,GI50,HS 578T breast,1870 nM
same,TGI,HS 578T breast,5520 nM
same,GI50,RPMI-8226 leukemia,2710 nM
same,TGI,RPMI-8226 leukemia,> 100000 nM
same,GI50,OVCAR-3 ovarian,696 nM
same,TGI,OVCAR-3 ovarian,2280 nM
same,GI50,HOP-92 NSCLC,615 nM
same,TGI,HOP-92 NSCLC,2630 nM
same,GI50,CCRF-CEM leukemia,822 nM
same,TGI,CCRF-CEM leukemia,19100 nM
same,GI50,SN12C renal,1100 nM
same,TGI,SN12C renal,3450 nM
same,GI50,UO-31 renal,31300 nM
same,TGI,UO-31 renal,> 100000 nM
same,GI50,SF-295 CNS,1910 nM
same,TGI,SF-295 CNS,5220 nM
same,GI50,CAKI-1 renal,2390 nM
same,TGI,CAKI-1 renal,11000 nM
same,GI50,HL-60(TB) leukemia,6710 nM
same,TGI,HL-60(TB) leukemia,25100 nM
same,GI50,MDA-MB-231 breast,1460 nM
same,TGI,MDA-MB-231 breast,3550 nM
same,GI50,TK-10 renal,3790 nM
same,TGI,TK-10 renal,14600 nM
same,GI50,NCI/ADR-RES ovarian,25400 nM
same,TGI,NCI/ADR-RES ovarian,> 100000 nM
same,GI50,OVCAR-4 ovarian,691 nM
same,TGI,OVCAR-4 ovarian,2740 nM
same,GI50,PC-3 prostate,1420 nM
same,TGI,PC-3 prostate,4720 nM
same,GI50,A498 renal,1840 nM
same,TGI,A498 renal,5400 nM
same,GI50,NCI-H460 lung,437 nM
same,TGI,NCI-H460 lung,1490 nM
same,GI50,SW-620 colon,441 nM
same,TGI,SW-620 colon,1370 nM
same,GI50,SNB-75 CNS,1610 nM
same,TGI,SNB-75 CNS,3980 nM
same,GI50,SK-MEL-2 melanoma,10400 nM
same,TGI,SK-MEL-2 melanoma,23000 nM
same,GI50,EKVX NSCLC,3890 nM
same,TGI,EKVX NSCLC,25900 nM
same,GI50,LOX IMVI melanoma,309 nM
same,TGI,LOX IMVI melanoma,1030 nM
same,GI50,NCI-H226 lung,1070 nM
same,TGI,NCI-H226 lung,3450 nM
same,GI50,ACHN renal,2180 nM
same,TGI,ACHN renal,13200 nM
same,GI50,IGROV1 ovarian,1910 nM
same,TGI,IGROV1 ovarian,6350 nM
same,GI50,BT-549 breast,2010 nM
same,TGI,BT-549 breast,4470 nM
same,GI50,SK-MEL-5 melanoma,1990 nM
same,TGI,SK-MEL-5 melanoma,5360 nM
same,GI50,RXF 393 renal,1050 nM
same,TGI,RXF 393 renal,2900 nM
same,GI50,MCF7 breast,488 nM
same,TGI,MCF7 breast,6050 nM
same,GI50,SK-OV-3 ovarian,5100 nM
same,TGI,SK-OV-3 ovarian,17500 nM
same,GI50,SR leukemia,1040 nM
same,TGI,SR leukemia,18400 nM
same,GI50,OVCAR-8 ovarian,2330 nM
same,TGI,OVCAR-8 ovarian,15700 nM
same,GI50,COLO 205 colon,1120 nM
same,TGI,COLO 205 colon,4210 nM
same,GI50,MDA-MB-468 breast,1170 nM
same,TGI,MDA-MB-468 breast,3010 nM
same,GI50,SK-MEL-28 melanoma,1630 nM
same,TGI,SK-MEL-28 melanoma,4050 nM
same,GI50,HCT-15 colon,31600 nM
same,TGI,HCT-15 colon,> 100000 nM
same,GI50,MALME-3M melanoma,452 nM
same,TGI,MALME-3M melanoma,1680 nM
same,GI50,UACC-257 melanoma,3360 nM
same,TGI,UACC-257 melanoma,15900 nM
same,GI50,UACC-62 melanoma,2860 nM
same,TGI,UACC-62 melanoma,12700 nM
same,GI50,M14 melanoma,992 nM
same,TGI,M14 melanoma,4570 nM
same,GI50,786-0 renal,1070 nM
same,TGI,786-0 renal,2750 nM
